Laboratory results from US20090093517A1, “BIS1,2,3,4-TETRAHYDROISOQUINOLINE DERIVATIVES AND THEIR USES AS PHARMACEUTICALS” (UNIVERSITE DE LIEGE, priority 2006, published 2009).
Where a name gives a salt, the structure may show the parent alone.

Test system: apamin-sensitive sites of the SK channels
Test: Competition binding between 125I-apamin and bis-tetrahydroisoquinoline derivatives on rat cortical synaptosomes
Settings: for % of 125I-apamin displaced at 10 μM: 10 μM compound, ±10 pM 125I-apamin, rat cortical synaptosomes, 1 h at 0° C.; for Ki: separated stereoisomers, rat cortical apamin sensitive sites, 125I-apamin
Method: These experiments are used to evaluate the potency of the bis-tetrahydroisoquinoline derivatives to interact with the apamin-sensitive sites of the SK channels, the selected target for which a blockade is expected to be useful in the treatment of Alzheimer's disease, Parkinson's disease, schizophrenia, cognitive dysfunction, or depression. Two reference compounds are also tested for comparison
Rats (male Wistar, ±250 g) were killed by decapitation and the brains were quickly removed and kept on ice during dissection. Crude cortex was dispersed in 0.32 M sucrose by using a Pottero homogenizer. After a first centrifugation at 1500×g for 10 min, the supernatant was centrifuged at 25000×g for 10 min. The resulting pellet was dispersed in 5 mL 0.32 M sucrose to be aliquoted. Protein concentration was determined by the method of Hartree with bovine serum albumin as a standard.^36
The buffer consisted of a 10 mM Tris-HCl (pH 7.5) solution containing 5.4 mM KCl and 0.1% bovine serum albumin. The radioligand was ^125I-apamin (Perkin-Elmer, Specific activity 81.4 TBq mmol^−1). Glass fibre filters (Whatman GF/C) used in these experiments were coated for 1 h in 0.5% polyethylenimine and then washed with 2.5 mL of the ice-cold buffer just before use. Binding experiments were always terminated as follows. Aliquots were filtered under reduced pressure through Whatman filters. Filters were rapidly washed twice with 2.5 mL of buffer. The radioactivity remaining on the filter was evaluated with a Packard Tri-Carb 1600TR liquid scintillation analyser with an efficacy of 69%. ^125I-apamin binding to the filters was also estimated in the absence of synaptosomes. This binding was also substracted from the total binding. Curve fitting was carried out using GraphPad Prism.
Saturation Binding Experiments—Synaptosomes (0.2 mg of protein/mL) were incubated with increasing concentrations of ^125I-apamin (25 μL) with 975 μL of incubation buffer for 1 h at 0° C. Samples were then filtered on Whatman GF/C filter and the radioactivity was measured as described above. Non specific binding was determined in parallel experiments in the presence of an excess of unlabeled apamin (0.1 μM) and subtracted from the total binding to obtain the specific binding.
Competition Experiments between ^125I-apamin and Bis-tetrahydroisoquinoline derivatives—Synaptosomes (0.2 mg of protein/mL) were incubated for 1 h at 0° C. with ±10 pM of ^125I-apamin (25 μL) and nine concentrations of bis-tetrahydroisoquinoline derivatives (10^−4 to 10^−7 M). Non specific binding was determined in the presence of an excess of unlabeled apamin (0.1 μM). Samples were then filtered on Whatman filter and the radioactivity was measured as described above.

Compound | % of 125I-apamin displaced at 10 μM | other results
COc1cc2c(cc1OC)C(CCCCC1c3cc(OC)c(OC)cc3CCN1C)N(C)CC2.Cl (centres unmarked) [Compound 4e, 1,4-bis[1-(6,7-dimethoxy-2-methyl-1,2,3,4-tetrahydroisoquinolyl)]-butane hydrochloride] | 72% | –
CN1CCc2ccccc2C1CCCC1c2ccccc2CCN1C.Cl (centres unmarked) [Compound 4a, 1,3-bis[1-(2-methyl-1,2,3,4-tetrahydrolisoquinolyl)]-propane hydrochloride] | 13% | –
COc1cc2c(cc1OC)C(Cc1cccc(CC3c4cc(OC)c(OC)cc4CCN3C)c1)N(C)CC2 (centres unmarked) [Compound 4m E1] | – | Ki (listed as 4m E1): 1.28 ± 0.055 µM
COc1cc2c(cc1OC)C(CCCC1c3cc(OC)c(OC)cc3CCN1C)N(C)CC2.Cl (centres unmarked) [Compound 4d, 1,3-bis[1-(6,7-dimethoxy-2-methyl-1,2,3,4-tetrahydroisoquinolyl)]-propane hydrochloride] | 82% | –
COc1ccc(C[C@H]2c3cc(OC)c(OC)cc3CC[N+]2(C)C)cc1OC [NML, N-methyl-laudanosine, reference compound] | 54% | –
COc1cc2c(cc1OC)C(CCCCC1c3cc(OC)c(OC)cc3CCN1C)N(C)CC2 (centres unmarked) [Compound 4e E2, 1,4-bis[1-(6,7-dimethoxy-2-methyl-1,2,3,4-tetrahydroisoquinolyl)]-butane hydrochloride] | – | Ki (listed as 4e E2, hydrochloride): 1.2 ± 0.114 µM
COc1cc2c(c(OC)c1OC)C(CCCC1c3c(cc(OC)c(OC)c3OC)CCN1C)N(C)CC2 (centres unmarked) [Compound 4g E1, 1,3-bis[1-(6,7,8-trimethoxy-2-methyl-1,2,3,4-tetrahydroisoquinolyl)]-propane hydrochloride] | – | Ki (listed as 4g E1, hydrochloride): 1.74 ± 0.195 µM
o-bis[1-(6,7-dimethoxy-2-methyl-1,2,3,4-tetrahydroisoquinolyl)]-xylene hydrochloride [Compound 4m] | 62% | –
